{
  "source": "patent EP0121764B1",
  "about": "“Polypeptides” (F. HOFFMANN-LA ROCHE AG, priority 1983, dated 1990)",
  "key": {"[1]": {"tested_on": "in Gewebekultur gezüchtete Zellen von Rattenhypophysen", "test": "Growth hormone release from cultured rat pituitary cells (RIA for rat growth hormone)", "format": "cell-based, Sprague-Dawley-Ratten", "description": "Die biologische Aktivität von (leu^27)-GRF(1―44)-OH wurde mit derjenigen von natürlichem GRF(1―44)-NH2 verglichen, das aus einem Pankreastumor eines an Akromegalie leidenden Patienten isoliert wurde (Salk Institute Standard hp-GRF-NH2(NL-A-10)). Der Test auf biologische Aktivität, bei dem die Fähigkeit gemessen wird, in Gewebekultur gezüchtete Zellen von Rattenhypophysen zur Wachstumshormonproduktion zu stimulieren, wurde in der folgenden Weise durchgeführt:\nDie Hypophysen-Vorderlappen von 30-40 männlichen Sprague-Dawley-Ratten (175 g) wurden dreimal mit sterilem Hepes-Puffer (pH 7,5) gewaschen und bei 37°C in 20-30 ml Hepes-Puffer (0,025 m, pH 7,35), enthaltend Kollagenase (4 mg/ml) und Dispase (2 mg/ml), dispergiert. Nach 100-110 minütiger Behandlung mit einem Vortex-Mixer und Behandlung mit Pasteur-Pipette, wurden die dispergierten Zellen durch Zentrifugieren (4 Minuten, 150xg) abgetrennt und während 10 Minuten in Hepes-Puffer, enthaltend 8 pg/ml Neuraminidase und 200 pg/ml Ethylendiamintetraessigsäure-dinatriumsalz, pH 7,35, resuspendiert. Die Zellen wurden zweimal mit folgendem Medium gewaschen: F-12/DMEM/BGjb (6:3:1) (Gibco: 430―1700/430―1600/320―2591) mit 2 g/I Rinderserumalbumin (BSA), 2x38 g/I Hepes und 50 mg/I Gentamycin und auf Mikrotiterplatten aufgebracht (1,5x10^5 Zellen/ml). Dem Medium in den einzelnen Löchern wurde entweder (leu^27)-GRF(1―44)-OH oder natürliches GRF(1-44)-NH2 in solchen Mengen zugesetzt, dass sich folgende Konzentrationen ergaben: 3.1, 6.3, 12.5, 25.0, 50.0, 100.0 und 200.0 fMol/ml. Die Kontrollen wurden nicht supplementiert. Das Aufbringen mit diesem Medium erfolgte unter Zusatz von 2% fötalem Kälberserum, um eine schnelle Fixierung der Zellen zu erreichen. Am vierten Tag wurden die Zellen zweimal mit dem oben definierten Medium (ohne Kälberserum) gewaschen. Schliesslich wurden jedem Loch 900 µl des Mediums sowie 100 µl Medium mit der Testsubstanz zugesetzt (jeweils dreifach). Nach dreistündiger Inkubation wurde der Überstand gesammelt und soweit verdünnt, dass Radioimmunoassays (RIAs) auf Ratten-Wachstumshormon durchgeführt werden konnten. […]"}, "[2]": {"details": "synthetically prepared peptides; factor relative to GRF(1-40)-OH; cited from earlier work"}},
  "note": "No end group written: not given here.",
  "data": [
    {"substance": "(leu^27)-GRF(1―44)-OH (YADAIFTNSYRKVLGQLSARKLLQDILSRQQGESNQERGARARL-OH; UniProt P01286 32-75, looked up, variant M27L) [(Leu^27)-GRF(1-44)-OH]", "values": [
      {"measurement": "relative Aktivität gegenüber dem Standard des Salk Instituts", "setting": "[1]; computer analysis of the table data, standard hp-GRF-NH2(NL-A-10) = natural GRF(1-44)-NH2, 3.1-200.0 fMol/ml, 3 h incubation", "result": "1,063"},
      {"measurement": "Faktor, um den die ausgeschüttete Menge an Wachstumshormon grösser ist, bezogen auf (leu^27)-GRF-OH", "setting": "[1]; in vitro", "result": "≥ 10"},
      {"measurement": "Aktivität verglichen mit GRF(1-44)-NH2", "setting": "[1]; stimulation of growth hormone production, 3.1-200.0 fMol/ml, 3 h incubation", "result": "gleich oder leicht höher"}
    ]},
    {"substance": "GRF(1-29)-NH2: synthetic GRF fragment, first 29 amino acids, amidated (Rivier et al.) (YADAIFTNSYRKVLGQLSARKLLQDIMSR-NH2; UniProt P01286 32-60, looked up, fragment)", "values": [
      {"measurement": "Aktivitäten ähnlich wie GRF(1-40)-OH (innerhalb eines Faktors)", "setting": "[2]", "result": "≤ 2"}
    ]},
    {"substance": "GRF(1-32)-NH2: synthetic GRF fragment, first 32 amino acids, amidated (Rivier et al.) (YADAIFTNSYRKVLGQLSARKLLQDIMSRQQG-NH2; UniProt P01286 32-63, looked up, fragment)", "values": [
      {"measurement": "Aktivitäten ähnlich wie GRF(1-40)-OH (innerhalb eines Faktors)", "setting": "[2]", "result": "≤ 2"}
    ]},
    {"substance": "GRF(1-39)-NH2: synthetic GRF fragment, first 39 amino acids, amidated (Rivier et al.) (YADAIFTNSYRKVLGQLSARKLLQDIMSRQQGESNQERG-NH2; UniProt P01286 32-70, looked up, fragment)", "values": [
      {"measurement": "Aktivitäten ähnlich wie GRF(1-40)-OH (innerhalb eines Faktors)", "setting": "[2]", "result": "≤ 2"}
    ]},
    {"substance": "GRF(1-40)-NH2: synthetic GRF fragment, first 40 amino acids, amidated (Rivier et al.) (YADAIFTNSYRKVLGQLSARKLLQDIMSRQQGESNQERGA-NH2; UniProt P01286 32-71, looked up, fragment)", "values": [
      {"measurement": "Aktivitäten ähnlich wie GRF(1-40)-OH (innerhalb eines Faktors)", "setting": "[2]", "result": "≤ 2"}
    ]}
  ]
}
